Key:
Test in all cases: drug sensitivity score (DSS2, normalised partial AUC of dose-response, 72 h CellTiter-Glo viability) (DSS (dimensionless)); higher = more sensitive (stronger growth inhibition / cytotoxicity); extreme values may be limits of the assay
PF179T = system: PF179T
Summary of the method: (§1)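 Cells were added to 384-well plates already holding compounds at five doses over a 10,000-fold range: low-passage primary prostate cancer-associated fibroblasts, PF179T, WPMY-1, LNCaP and 22Rv1. Viability was measured 72 h later by CellTiter-Glo 2.0 luminescence and scaled to vehicle and positive-control wells. The drug sensitivity score, computed in BREEZE, is a partial area under the fitted logistic dose–response curve divided by the log of its upper asymptote, with higher scores meaning greater sensitivity.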

CAF#5 = system: CAF#5 (primary prostate cancer-associated fibroblasts of myCAF-like type)
Summary of the method: as §1

LNCAP = system: LNCAP
Summary of the method: as §1

CAF#7 = system: CAF#7 (primary prostate cancer-associated fibroblasts of myCAF-like type)
Summary of the method: as §1

CAF#2 = system: CAF#2 (primary prostate cancer-associated fibroblasts of iCAF-like type)
Summary of the method: as §1

CAF#1 = system: CAF#1 (primary prostate cancer-associated fibroblasts of myCAF-like type)
Summary of the method: as §1

CAF#3 = system: CAF#3 (primary prostate cancer-associated fibroblasts of myCAF-like type)
Summary of the method: as §1

CAF#6 = system: CAF#6 (primary prostate cancer-associated fibroblasts of iCAF-like type)
Summary of the method: as §1

CAF#4 = system: CAF#4 (primary prostate cancer-associated fibroblasts of iCAF-like type)
Summary of the method: as §1

22Rv1 = system: 22Rv1
Summary of the method: as §1

WPMY-1 = system: WPMY-1
Summary of the method: as §1

CC1(C)CCC(CN2CCN(c3ccc(C(=O)NS(=O)(=O)c4ccc(NCC5CCOCC5)c([N+](=O)[O-])c4)c(Oc4cnc5[nH]ccc5c4)c3)CC2)=C(c2ccc(Cl)cc2)C1 [Venetoclax] (tested concentration range 0.1-1000 nM)
drug sensitivity score (PF179T): 0 | drug sensitivity score (CAF#5): 0 | drug sensitivity score (LNCAP): 0 | drug sensitivity score (CAF#7): 0 | drug sensitivity score (CAF#2): 0 | drug sensitivity score (CAF#1): 0 | drug sensitivity score (CAF#3): 0 | drug sensitivity score (CAF#6): 0 | drug sensitivity score (CAF#4): 0 | drug sensitivity score (22Rv1): 0 | drug sensitivity score (WPMY-1): 0

CCCCOc1nc(N)c2c(n1)N(Cc1cccc(CN3CCCC3)c1)CC(=O)N2 [Vesatolimod] (tested concentration range 1-10000 nM)
drug sensitivity score (PF179T): 0 | drug sensitivity score (CAF#5): 0 | drug sensitivity score (LNCAP): 0 | drug sensitivity score (CAF#7): 0 | drug sensitivity score (CAF#2): 0 | drug sensitivity score (CAF#1): 0 | drug sensitivity score (CAF#3): 0 | drug sensitivity score (CAF#6): 0 | drug sensitivity score (CAF#4): 0 | drug sensitivity score (22Rv1): 0 | drug sensitivity score (WPMY-1): 0

CC[C@]1(O)C[C@@H]2CN(CCc3c([nH]c4ccccc34)[C@@](C(=O)OC)(c3cc4c(cc3OC)N(C)[C@H]3[C@@](O)(C(=O)OC)[C@H](OC(C)=O)[C@]5(CC)C=CCN6CC[C@]43[C@@H]65)C2)C1 [Vinblastine] (tested concentration range 0.1-1000 nM)
drug sensitivity score (PF179T): 5.9 | drug sensitivity score (CAF#5): 5.2 | drug sensitivity score (LNCAP): 24.7 | drug sensitivity score (CAF#7): 7.5 | drug sensitivity score (CAF#2): 5.6 | drug sensitivity score (CAF#1): 4.1 | drug sensitivity score (CAF#3): 2.8 | drug sensitivity score (CAF#6): 5.1 | drug sensitivity score (CAF#4): 3.6 | drug sensitivity score (22Rv1): 7.7 | drug sensitivity score (WPMY-1): 11.9

CC[C@]1(O)C[C@H]2CN(CCc3c([nH]c4ccccc34)[C@@](C(=O)OC)(c3cc4c(cc3OC)N(C=O)[C@H]3[C@@](O)(C(=O)OC)[C@H](OC(C)=O)[C@]5(CC)C=CCN6CC[C@]43[C@@H]65)C2)C1 [Vincristine] (tested concentration range 0.1-1000 nM)
drug sensitivity score (PF179T): 4.5 | drug sensitivity score (CAF#5): 4.3 | drug sensitivity score (LNCAP): 26 | drug sensitivity score (CAF#7): 11.5 | drug sensitivity score (CAF#2): 5.1 | drug sensitivity score (CAF#1): 4.4 | drug sensitivity score (CAF#3): 4.7 | drug sensitivity score (CAF#6): 5.6 | drug sensitivity score (CAF#4): 2 | drug sensitivity score (22Rv1): 12.3 | drug sensitivity score (WPMY-1): 12.1

CC[C@]12C=CCN3CC[C@@]4(c5cc([C@@]6(C(=O)OC)C[C@@H]7C[C@@H](C(C)(F)F)CN(Cc8c6[nH]c6ccccc86)C7)c(OC)cc5N(C)[C@H]4[C@@](O)(C(=O)OC)[C@@H]1OC(C)=O)[C@@H]32 [Vinflunine] (tested concentration range 0.1-1000 nM)
drug sensitivity score (PF179T): 3.8 | drug sensitivity score (CAF#5): 1.1 | drug sensitivity score (LNCAP): 4.3 | drug sensitivity score (CAF#7): 4.4 | drug sensitivity score (CAF#2): 0.9 | drug sensitivity score (CAF#1): 0.9 | drug sensitivity score (CAF#3): 2 | drug sensitivity score (CAF#6): 2.4 | drug sensitivity score (CAF#4): 0.1 | drug sensitivity score (22Rv1): 4.8 | drug sensitivity score (WPMY-1): 5.5

CCC1=C[C@@H]2CN(C1)Cc1c([nH]c3ccccc13)[C@@](C(=O)OC)(c1cc3c(cc1OC)N(C)[C@H]1[C@@](O)(C(=O)OC)[C@H](OC(C)=O)[C@]4(CC)C=CCN5CC[C@]31[C@@H]54)C2 [Vinorelbine] (tested concentration range 1-10000 nM)
drug sensitivity score (PF179T): 19.7 | drug sensitivity score (CAF#5): 18.1 | drug sensitivity score (LNCAP): 42 | drug sensitivity score (CAF#7): 26 | drug sensitivity score (CAF#2): 20.1 | drug sensitivity score (CAF#1): 17.3 | drug sensitivity score (CAF#3): 15.3 | drug sensitivity score (CAF#6): 19.6 | drug sensitivity score (CAF#4): 12.6 | drug sensitivity score (22Rv1): 31.3 | drug sensitivity score (WPMY-1): 36.9

CS(=O)(=O)c1ccc(C(=O)Nc2ccc(Cl)c(-c3ccccn3)c2)c(Cl)c1 [Vismodegib] (tested concentration range 1-10000 nM)
drug sensitivity score (PF179T): 0 | drug sensitivity score (CAF#5): 0 | drug sensitivity score (LNCAP): 0.2 | drug sensitivity score (CAF#7): 0 | drug sensitivity score (CAF#2): 0 | drug sensitivity score (CAF#1): 0 | drug sensitivity score (CAF#3): 1.5 | drug sensitivity score (CAF#6): 0 | drug sensitivity score (CAF#4): 0 | drug sensitivity score (22Rv1): 0 | drug sensitivity score (WPMY-1): 0

CNC(=O)c1cccc(-c2ccc3c(N4CCOC[C@@H]4C)nc(N4CCOC[C@@H]4C)nc3n2)c1 [Vistusertib] (tested concentration range 1-10000 nM)
drug sensitivity score (PF179T): 16.2 | drug sensitivity score (CAF#5): 19.6 | drug sensitivity score (LNCAP): 19.4 | drug sensitivity score (CAF#7): 14.4 | drug sensitivity score (CAF#2): 15.8 | drug sensitivity score (CAF#1): 17.7 | drug sensitivity score (CAF#3): 14.8 | drug sensitivity score (CAF#6): 14 | drug sensitivity score (CAF#4): 17.9 | drug sensitivity score (22Rv1): 19.9 | drug sensitivity score (WPMY-1): 13.7

CC[C@@H]1C(=O)N(C)c2cnc(Nc3ccc(C(=O)N[C@H]4CC[C@H](N5CCN(CC6CC6)CC5)CC4)cc3OC)nc2N1C(C)C [Volasertib] (tested concentration range 0.1-1000 nM)
drug sensitivity score (PF179T): 5.9 | drug sensitivity score (CAF#5): 1.7 | drug sensitivity score (LNCAP): 19.3 | drug sensitivity score (CAF#7): 2.9 | drug sensitivity score (CAF#2): 5.1 | drug sensitivity score (CAF#1): 0.4 | drug sensitivity score (CAF#3): 4.2 | drug sensitivity score (CAF#6): 1.9 | drug sensitivity score (CAF#4): 0 | drug sensitivity score (22Rv1): 14.9 | drug sensitivity score (WPMY-1): 11.4

O=C(CCCCCCC(=O)Nc1ccccc1)NO [Vorinostat] (tested concentration range 1-10000 nM)
drug sensitivity score (PF179T): 3.4 | drug sensitivity score (CAF#5): 4.1 | drug sensitivity score (LNCAP): 10 | drug sensitivity score (CAF#7): 3.1 | drug sensitivity score (CAF#2): 6.5 | drug sensitivity score (CAF#1): 4 | drug sensitivity score (CAF#3): 6.3 | drug sensitivity score (CAF#6): 4.2 | drug sensitivity score (CAF#4): 4.9 | drug sensitivity score (22Rv1): 9.7 | drug sensitivity score (WPMY-1): 9.7

Oc1nc(-c2ccc(C(F)(F)F)cc2)nc2c1CSCC2 [XAV-939] (tested concentration range 1-10000 nM)
drug sensitivity score (PF179T): 2.6 | drug sensitivity score (CAF#5): 4.1 | drug sensitivity score (LNCAP): 2.1 | drug sensitivity score (CAF#7): 4.3 | drug sensitivity score (CAF#2): 5.4 | drug sensitivity score (CAF#1): 2.6 | drug sensitivity score (CAF#3): 2.5 | drug sensitivity score (CAF#6): 4 | drug sensitivity score (CAF#4): 2.6 | drug sensitivity score (22Rv1): 0 | drug sensitivity score (WPMY-1): 0

Cc1sc2c(c1C)C(c1ccc(Cl)cc1)=N[C@@H](CC(=O)NCCCCNC(=O)COc1cccc3c1C(=O)N(C1CCC(=O)NC1=O)C3=O)c1nnc(C)n1-2 (some centres not stated) [dBET1] (tested concentration range 1-10000 nM)
drug sensitivity score (PF179T): 0.2 | drug sensitivity score (CAF#5): 8.2 | drug sensitivity score (LNCAP): 9.1 | drug sensitivity score (CAF#7): 14.2 | drug sensitivity score (CAF#2): 2.7 | drug sensitivity score (CAF#1): 4.5 | drug sensitivity score (CAF#3): 12 | drug sensitivity score (CAF#6): 9.1 | drug sensitivity score (CAF#4): 6.3 | drug sensitivity score (22Rv1): 12 | drug sensitivity score (WPMY-1): 6

Reference: the supplement of paper PMC12592484
